Literature values in WO2011084962A1, “Analogs of dehydrophenylahistins” (Nereus Pharmaceuticals Inc, priority 2010, dated 2011).

What was measured:
[1] = tested on: retinal neovascularization; conditions: occurs during proliferative retinopathy
[2] = tested on: VEGF induced retinal neovascularization; conditions: in vivo
[3] = tested on: choroidal neovascularization; conditions: in vivo
[4] = tested on: neovessels in non-neoplastic tissue; conditions: in vivo
[5] = tested on: cell cycle progression in the M phase

Structure (SMILES) | effect on the microtubule assembly (microtubule assembly) | inhibition of cell cycle progression in the M phase [5] | also measured
COc1ccc(/C=C\c2cc(OC)c(OC)c(OC)c2)cc1OP(=O)(O)O [CA-4P] | – | – | inhibition of retinal neovascularization [1]: inhibit the retinal neovascularization that occurs during proliferative retinopathy; suppression of the development of VEGF induced retinal neovascularization [2]: suppress the development of VEGF induced retinal neovascularization; inhibition of development and/or partial regression of choroidal neovascularization [3]: inhibit the development and/ or cause partial regression of choroidal neovascularization
COc1ccc(/C=C\c2cc(OC)c(OC)c(OC)c2)cc1O [Combretastatin A-4] | – | – | disruption of neovessels in non-neoplastic tissue [4]: cause the disruption of neovessels in non-neoplastic tissue
COc1ccc2c(C[C@@H]3NC(=O)[C@@H]4CCCN4C3=O)c(CC=C(C)C)[nH]c2c1 [tryprostatin A] | affect the microtubule assembly | inhibited cell cycle progression in the M phase | –
CC(C)=CCc1[nH]c2ccccc2c1C[C@@H]1NC(=O)[C@@H]2CCCN2C1=O [tryprostatin B] | affect the microtubule assembly | inhibited cell cycle progression in the M phase | –
